“Also recorded” adds a separate entry of the source. Structures can show the parent of a compound that is named as a salt. Marks after values point to notes of the source that are not given here.
Legend:
[1] = system: male ICR mice; assay: Hot-plate paw-withdrawal test after popliteal (peri-sciatic nerve block) injection; assay type: in vivo; details: for local anesthesia of the drug alone in the presence of 1:200,000 epinephrine: 0.125% bupivacaine or ibutilide (3.9 nmoles), each with 1:200,000 epinephrine; for local anesthesia of the drug alone (paw-withdrawal latency): 0.5% bupivacaine or ibutilide (3.9 nmoles) with vehicle, 60-min time-course, or bupivacaine dose-response at 10-min; for Potency ratio (95% C.L.): 10-min; for % Bupivacaine ED50 (95% C.L.): tested 10-min later
Description: Animals: Male ICR mice (25-30 gm) were obtained from Harlan Sprague Dawley. The mice were housed in groups of four to six and kept on a 12-h light/12-h dark cycle. Mice were tested during the light cycle; and the original groupings were maintained (i.e., mice were not recombined into new groups or isolated) to decrease infighting and consequent stress that could confound the results. Behavioral Procedures: Following the procedure of Leszczynska and Kau (1992), each mouse was placed on a ¼inch wire mesh screen, which was then inverted; a mouse with no motor defects walks in a characteristic circular pattern, grasping the mesh with each paw and then letting go. Mice that could not walk normally at baseline were not used for testing. […] Baseline paw withdrawal latencies ranged between 2- to 3-sec. After collecting baseline data, the mice were injected with vehicle, ibutilide, or bupivacaine mixed with vehicle or ibutilide. At the appropriate times, motor scores and test paw withdrawal latencies were obtained. A 20-sec cut-off was employed to prevent tissue damage on the hot-plate test. Injection Procedures: Each mouse was injected with drug solution using a 30 gauge,½ inch needle attached to a 1 ml syringe (needle and syringe from Becton Dickinson). The animals were gently restrained, while the limb to be injected was extended to expose the popliteal space, which is behind the knee of the mouse. The needle was inserted in the popliteal space, and 0.05 ml of drug solutions injected. The nerve bundle of the sciatic nerve passes through the popliteal space. Thus, the limb and paw distal to the injection is effectively anesthetized. The motor and sensory tests were then repeated at 5-min intervals for a 1-h period. […] Some mice could place their paw on the screen, but could not grasp the screen with their digits; this was determined to be an intermediate phase. The motor block was determined to be resolved when the mouse could walk on the inverted screen using both the leg and paw. Sensory blockade was assessed by measuring in seconds, the time the bupivacaine-injected paw remained on hot-plate surface before withdrawing it. The test was terminated if the cut-off of 20-sec occurred during the test procedure. For time-course studies, two-factor repeated measures analysis of variance followed by the post hoc Tukey's test was used to assess for significant increases in paw withdrawal latencies compared to baseline. In addition, the effect of ibutilide to enhance bupivacaine was assessed, and compared with the appropriate controls at each time point during the 60-min test period. For dose-response curves, the data was converted to the percentage of maximum possible effect, which was calculated as: % MPE=[(Test−Baseline)/(20 −Baseline)]×100. […] The absence of overlapping confidence limits was used to indicate significant differences in ED50 values between dose-response curves. Potency-ratio values with 95% confidence limits were calculated by the method of Colquhoun (1971). Drugs: Sterile isotonic saline was used to dissolve and dilute drug solutions. Bupivacaine HCl was purchased from the MCV Hospitals Pharmacy (Winthrop Pharmaceuticals, NY, N.Y. ). To assure consistency, the same vial of bupivacaine was used for all injections involving bupivicaine. The concentration was varied by either diluting with normal saline, or by freeze-drying and then reconstituting the material with normal saline. The same vial of bupivacaine with 1:200,000 epinephrine was used for the second set of experiments. The epinephrine dose was adjusted by adding epinephrine to maintain a constant concentration of epinephrine 2.76×10^−5 M. Ibutilide fumarate was purchased from the MCV Hospitals Pharmacy (Pharmacia & Upjohn Company of Kalamazoo, Mich.). The concentration of ibutilide was held constant at 3.9 nanomoles (nmoles) per mouse. Enhancement of Bupivacaine HCl with Ibutilide. Experiments were conducted to determine whether ibutilide would enhance the local anesthetic effects of bupivacaine. […]

[2] = system: male ICR mice; assay: Radiant heat tail-flick test after subcutaneous infiltration of the tail (infiltration anesthesia); assay type: in vivo; details: for % Bupivacaine ED50 (95% C.L.): bupivacaine mixed with vehicle or sotalol (10 nmoles), infiltrated in mouse tail
Description: Methods of handling mice. Male ICR mice (Harlan Laboratories, Indianapolis, Ind.) weighing 27.0±0.4 g were housed 6 to a cage in animal care quarters maintained at 22±2 ° C. on a 12-h light-dark cycle. Food and water were available ad libitum. The mice were brought to a test room (22±2° C. , 12-h light-dark cycle), marked for identification and allowed 16-h to recover from transport and handling. The Institutional Animal Care and Use Committee at the Medical College of Virginia Campus of Virginia Commonwealth University approved all the procedures in this study.
The tail-flick test. The tail-flick test used to assess for infiltration anesthesia was developed by D'Amour and Smith (1941) and modified by Dewey et al (1970). The tail-flick device is designed to focus a light beam onto the site infiltrated with local anesthetic, without exposing non-injected tissue to the noxious radiant heat stimulus. The intensity was adjusted to yield baseline latencies of between 2- to 4-sec. A single baseline latency was obtained approximately 15-min before the mice were injected with drug. A 10-sec cut-off was used to prevent any potential tissue damage. In experiments testing for potential underlying infiltration anesthesia that was not observed with the higher heat stimulus, the intensity was reduced to yield baseline latencies of about 6-sec. A 12-sec cut-off was used in these experiments.
Subcutaneous infiltration of bupivacaine. Before infiltration of vehicle or drug, baseline tail-flick latencies were obtained by exposing the tail to noxious radiant heat at the site to be infiltrated with drug. The baseline average over the entire study was 3.1±0.1 sec. The mice were then restrained to allow us unencumbered access to the tail. A 26-gauge ⅝ needle was inserted approximately 1.0 to 1.3 cm longitudinally under the skin in the subcutaneous space in the dorsal aspect of the tail. The needle was attached to a 1-ml syringe (Becton Dickinson, Franklin Lakes, N.J. ) pre-filled with drug solution. A […] volume of drug solution was infiltrated, and the needle was left in place for 5-s to prevent leakage of injectate from the site after removing the needle. During injection, the solution dispersed around the circumference of the tail in a rostral-caudal direction of about 2- to 3-cm. A slight blanching of the skin that reversed within 1 to 2 min indicated the extent of the spread of solution. A non-toxic marking pen was used to mark the most rostral spread of solution. Tail-flick testing was conducted below the area marked on the tail. These methods are detailed in a previous report (Smith et al. 1997).
Experimental design. Sotalol was solubilized and then mixed with bupivacaine HCl for co-infiltration of the tail. The influence of increasing concentrations of sotalol on the ED50 dose of bupivacaine was also examined. Both baseline and test tail-flick latencies from each animal were converted into the percentage of maximum possible effect (% MPE) according to the method of Harris and Pierson (1964), which was calculated as: % MPE=[(test−baseline)/(10−baseline)]×100. The ordinate was % MPE, while the abscissa was expressed as the dose of sotalol. Complete bupivacaine dose-response curves were generated in the absence and presence of sotalol (10 nmole) for calculation of ED50 and potency ratio values. The ordinate was % MPE, while the abscissa was expressed as the % bupivacaine dose.
Statistical analyses: The Tail-Flick Latency (sec) values were analyzed with one factor ANOVA for experiments in which different concentrations of sotalol were tested with an ED50 dose of bupivacaine. A statistically significant F-value led to post hoc comparisons using the Tukey's test. The % MPE values for dose-response curves were analyzed in the following manner. ED50 values were calculated using least squares linear regression analysis of % MPE values followed by calculation of 95% confidence limits (C.L.) according to the method of Bliss (1967). […]

[3] = bupivacaine containing 1:200,000 epinephrine mixed with vehicle or ibutilide (3.9 nmoles), popliteal space, hot-plate
[4] = hot-plate 56° C., bupivacaine mixed with vehicle or ibutilide (3.9 nmoles), injected in popliteal space, no epinephrine

CCCCCCCN(CC)CCCC(O)c1ccc(NS(C)(=O)=O)cc1 (racemic) [Ibutilide, (±) N-[4-[4-(Ethylheptylamino)-1-hydroxybutyl]phenyl]methanesulfonamide (E)-2-butenedioate (2:1) salt]
local anesthesia of the drug alone in the presence of 1:200,000 epinephrine ([1]; 1-h time-course): failed to elicit any anesthetic effects | local anesthesia of the drug alone (paw-withdrawal latency) ([1]; no epinephrine): no anesthesia; also recorded: inactive | Potency ratio (95% C.L.) ([1]; bupivacaine + 1:200,000 epinephrine + ibutilide (3.9 nmoles) vs vehicle control, hot-plate): 6.8 (4.3 to 12.7)** | Potency ratio (95% C.L.) ([1]; bupivacaine + ibutilide (3.9 nmoles) vs bupivacaine + vehicle, hot-plate, no epinephrine): 2.8 (1.9 to 3.8)** | % Bupivacaine ED50 (95% C.L.) [1, 3]: 0.05% (0.04 to 0.06)** | % Bupivacaine ED50 (95% C.L.) [1, 4]: 0.24% (0.19 to 0.30)** | enhancement of the local anesthetic effects of 0.5% bupivacaine ([1]; ibutilide 3.9 nmoles mixed with 0.5% bupivacaine, 60-min time-course, no epinephrine): markedly enhanced; also recorded: significantly increased | duration of enhancement of the local anesthetic effects of 0.5% bupivacaine ([1]; ibutilide 3.9 nmoles mixed with 0.5% bupivacaine, tested every 5 min for 1-h): 35 min | enhancement of the amount (efficacy) of 0.125% bupivacaine + 1:200,000 epinephrine ([1]; ibutilide 3.9 nmoles, 1-h time-course): greatly increased | increase in relative potency of bupivacaine+1:200,000 epinephrine ([1]; in the presence of ibutilide (3.9 nmoles), hot-plate): 6.8 fold | increase in potency of bupivacaine ([1]; in the presence of ibutilide (3.9 nmoles), hot-plate, no epinephrine): 2.8 fold

CC(C)NCC(O)c1ccc(NS(C)(=O)=O)cc1.Cl (stereo not shown) [Sotalol, N-[4-[1-hydroxy-2-[(1-methylethyl)amino]ethyl]phenyl]methanesulfonamide monohydrochloride]
Potency ratio (95% C.L.) ([2]; bupivacaine + sotalol (10 nmoles) vs bupivacaine + vehicle, tail-flick, 30-min): 2.7 (1.6 to 4.5) | % Bupivacaine ED50 (95% C.L.) ([2]; tail-flick 30-min later): 0.04% (0.03 to 0.06)** | increase in potency of bupivacaine ([2]; in the presence of sotalol (10 nmoles), tail-flick, 30-min): 2.7 fold | enhancement of the anesthetic effects of an ED50 dose of bupivacaine (0.12%) ([2]; increasing doses of sotalol co-infiltrated, tail-flick 30-min later): enhanced in a dose-dependent fashion | anesthetic effect of the drug alone ([2]; sotalol alone, tail infiltration, tail-flick 30-min later, monohydrochloride): inactive; also recorded: no anesthetic effects

CCCCN1CCCCC1C(=O)Nc1c(C)cccc1C (stereo not shown) [bupivacaine]
local anesthesia of the drug alone in the presence of 1:200,000 epinephrine ([1]; 1-h time-course): elicited local anesthesia | local anesthesia of the drug alone (paw-withdrawal latency) ([1]; no epinephrine): mild level of anesthesia; also recorded: dose-dependent anesthesia | % Bupivacaine ED50 (95% C.L.) [1, 3]: 0.31% (0.22 to 0.44) | % Bupivacaine ED50 (95% C.L.) [1, 4]: 0.67% (0.59 to 0.77) | % Bupivacaine ED50 (95% C.L.) ([2]; tail-flick 30-min later): 0.11% (0.08 to 0.15)

CNC[C@H](O)c1ccc(O)c(O)c1 [epinephrine]
effect of 1:200,000 epinephrine on the efficacy of 0.125% bupivacaine ([1]; time-course experiments, hot-plate): increased

Reference: patent US20020161018A1, “Enhancement of the potency and efficacy of local anesthetics with ibutilide and other methanesulfonamide drugs” (priority 2001, published 2002)
